Source: patent publication US4990497A, “Antifungal antibiotics” (priority 1989, dated 1991)
≈ marks a conversion by molar mass, not a printed value. Entries after “also recorded” stand apart in the source; their conditions may differ. Like-named read-outs stand apart in the source and are kept apart here.

Assays:
Aspergillus fumigatus [1] = test: Antifungal MIC, serial agar dilution (Sabouraud dextrose agar), Aspergillus fumigatus; type: cell-based
[2] = tested on: Trichophyton mentagrophytes; test: Antifungal MIC, broth dilution (Sabouraud dextrose broth), Trichophyton mentagrophytes
Description: (§1) The minimum inhibitory concentrations (MICs) against various fungi were determined by serial agar and broth dilution methods using Sabouraud dextrose agar and broth. The inoculum size of the test organism was adjusted to 10^5 CFUs/ml (BU-3608) or 10^5 -10^9 CFUs/ml (BU-3608 B and C) in the agar dilution method, and 10^4 -10^5 CFUs/ml (BU-3608) or 10^4 -10^6 CFUs/ml (BU-3608 B and C) in the broth dilution method.
(§2) ^(1) Determined after incubation for 72 hours at 28° C.
(§3) ^(2) Inoculum size: 10^5 CFU/ml for agar dilution and 10^4
-10^5 CFU/ml for broth dilution.
(§4) ^(3) Values in parenthesis indicate partial inhibition.
(§5) *Determined after incubation for 48-72 hours at 28° C.
(§6) **Inoculum size : 10^4 -10^6 CFU/ml for broth dilution and
10^5 -10^9 CFU/ml for agar dilution.
(§7) Values in parenthesis indicate partial inhibition.

Sporothrix schenckii = test: Antifungal MIC, serial agar dilution (Sabouraud dextrose agar), Sporothrix schenckii; type: cell-based
Cryptococcus neoformans [3] = test: Antifungal MIC, serial agar dilution (Sabouraud dextrose agar), Cryptococcus neoformans; type: cell-based
Candida albicans [4] = test: Antifungal MIC, serial agar dilution (Sabouraud dextrose agar), Candida albicans; type: cell-based
Aspergillus fumigatus [5] = test: Antifungal MIC, broth dilution (Sabouraud dextrose broth), Aspergillus fumigatus
Description: as §1, §2, §3
-10^5 CFU/ml for broth dilution.
as §4, §5, §6
10^5 -10^9 CFU/ml for agar dilution.
as §7

Fusarium moniliforme = test: Antifungal MIC, serial agar dilution (Sabouraud dextrose agar), Fusarium moniliforme; type: cell-based; details: Fusarium verticillioides
Candida albicans [6] = test: Antifungal MIC, broth dilution (Sabouraud dextrose broth), Candida albicans
Description: as §1, §2, §3
-10^5 CFU/ml for broth dilution.
as §4, §5, §6
10^5 -10^9 CFU/ml for agar dilution.
as §7

Piricularia oryzae = test: microbe, parasite or virus in culture; type: cell-based
[7] = tested on: Trichophyton mentagrophytes; test: Antifungal MIC, serial agar dilution (Sabouraud dextrose agar), Trichophyton mentagrophytes; type: cell-based
Candida albicans A9540 = test: In vivo antifungal activity, Candida albicans intravenous infection in mice; design: species or system mice (male ICR); details: for ED50: Candida albicans, read-out: PD50; for Number of survivors/tested: iv just after challenge
Description: The methyl and ethyl esters of BU-3608 were also evaluated against C. albicans A9540 infections in mice using the protocol described above. […] It is postulated that these esters are hydrolyzed in vivo to provide the active parent compound.

in vitro [8] = details: dog, mdck
Cryptococcus neoformans [9] = test: Antifungal MIC, broth dilution (Sabouraud dextrose broth), Cryptococcus neoformans
Description: as §1, §2, §3
-10^5 CFU/ml for broth dilution.
as §4, §5, §6
10^5 -10^9 CFU/ml for agar dilution.
as §7

[10] = tested on: Cryptococcus neoformans IAM 4514; test: In vivo antifungal activity, Cryptococcus neoformans intravenous infection in mice; details: IAM4514, in Mus musculus, im, 480 h, read-out: PD50
Description: In vivo activities of BU-3608, BU-3608 B, and BU-3608 C were tested against Candida albicans, Aspergillus fumigatus, and Cryptococcus neoformans infections in mice. Test organisms were cultured for 18 hours at 28° C. in YGP medium (yeast extract, glucose, peptone, K2 HPO4, MgSO4) and then suspended in saline. Male ICR mice weighing 20 to 24 g were infected intravenously with about 20 times (BU-3608) or 10 times (BU-3608 B and C) the median lethal dose of the test fungi. The antibiotics at various dose levels were administered to groups of 5 mice each either intravenously just after the fungal infection or intramuscularly twice a day on days 0 and 1. The dose that protects 50% of the animals from infection (PD50, mg/kg) was calculated from survival rates recorded on the 20th day after the fungal challenge.
**Compounds were administered im b.i.d. on days 0 and 1.

influenza virus A = test: Cytopathic effect (CPE) reduction assay, influenza virus A in MDCK cells; type: cell-based; details: unidentified influenza virus, 72 h, read-out: ID50 (CPE reduction)
Blastomyces dermatitidis = test: Antifungal MIC, serial agar dilution (Sabouraud dextrose agar), Blastomyces dermatitidis; details: 72 h
Description: as §1, §2

Solubility = type: physicochemical; details: free form
Mucor spinosus = test: Antifungal MIC, serial agar dilution (Sabouraud dextrose agar), Mucor spinosus; details: IFO5317, 72 h
Description: as §1, §2

Aspergillus flavus = test: Antifungal MIC, serial agar dilution (Sabouraud dextrose agar), Aspergillus flavus; details: 72 h
Description: as §1, §2

in vitro [11] = details: monkey, vero cells
Petriellidium boydii = test: Antifungal MIC, serial agar dilution (Sabouraud dextrose agar), Petriellidium boydii; details: Scedosporium boydii, IFO8073, 72 h
Description: as §1, §2

Acute toxicity in mice = type: in vivo
Description: The acute toxicity of BU-3608 was determined in mice after single intravenous and intramuscular administrations.

[12] = Aspergillus fumigatus IAM2034, 48-72 h at 28° C., 10^5-10^9 CFU/ml
[13] = Aspergillus fumigatus IAM2530, 48-72 h at 28° C., 10^5-10^9 CFU/ml
[14] = read-out: MIC, partial inhibition (value in parenthesis)
[15] = Sporothrix schenckii IFO8158, 48-72 h at 28° C., 10^5-10^9 CFU/ml
[16] = Cryptococcus neoformans D49, 48-72 h at 28° C., 10^5-10^9 CFU/ml
[17] = Cryptococcus neoformans IAM4514, 48-72 h at 28° C., 10^5-10^9 CFU/ml
[18] = Candida albicans A9540, 48-72 h at 28° C., 10^5-10^9 CFU/ml
[19] = Candida albicans IAM4888, 48-72 h at 28° C., 10^5-10^9 CFU/ml
[20] = IAM2034, read-out: MIC, partial inhibition (value in parenthesis)
[21] = Fusarium moniliforme A2284, 48-72 h at 28° C., 10^5-10^9 CFU/ml
[22] = Trichophyton mentagrophytes #4329, 48-72 h at 28° C., 10^5-10^9 CFU/ml
[23] = Trichophyton mentagrophytes D155, 48-72 h at 28° C., 10^5-10^9 CFU/ml
[24] = dose 3.1 mg/kg/inj., day 20, challenge 20x (BU-3608) or 10x (B, C) median lethal dose
[25] = dose 6.3 mg/kg/inj., day 20, challenge 20x (BU-3608) or 10x (B, C) median lethal dose
[26] = dose 12.5 mg/kg/inj., day 20, challenge 20x (BU-3608) or 10x (B, C) median lethal dose
[27] = dose 25 mg/kg/inj., day 20, challenge 20x (BU-3608) or 10x (B, C) median lethal dose
[28] = dose 50 mg/kg/inj., day 20, challenge 20x (BU-3608) or 10x (B, C) median lethal dose

COc1cc(O)c2c(c1)C(=O)c1c(cc3c(c1O)-c1c(cc(C)c(C(=O)N[C@H](C)C(=O)O)c1O)C(O[C@@H]1O[C@H](C)[C@H](N)[C@H](O[C@@H]4OC[C@@H](O)[C@H](O)[C@H]4O)[C@H]1O)C3O)C2=O (stereo partly shown)
MIC (Aspergillus fumigatus [1]; [12]): 6.3 µg/mL (≈ 7.62 µM)
MIC (Aspergillus fumigatus [1]; [13]): 3.1 µg/mL (≈ 3.75 µM)
MIC [2]: 6.3 µg/mL (≈ 7.62 µM)
MIC [2, 14]: 1.3 µg/mL (≈ 1.57 µM)
MIC (Sporothrix schenckii; [15]): 1.6 µg/mL (≈ 1.94 µM)
MIC (Cryptococcus neoformans [3]; [16]): 0.8 µg/mL (≈ 0.968 µM)
MIC (Cryptococcus neoformans [3]; [17]): 0.8 µg/mL (≈ 0.968 µM)
MIC (Candida albicans [4]; [18]): 6.3 µg/mL (≈ 7.62 µM)
MIC (Candida albicans [4]; [19]): 6.3 µg/mL (≈ 7.62 µM)
MIC (Aspergillus fumigatus [5]; IAM2034): 6.3 µg/mL (≈ 7.62 µM)
MIC (Aspergillus fumigatus [5]; [20]): 3.1 µg/mL (≈ 3.75 µM)
MIC (Fusarium moniliforme; [21]): 6.3 µg/mL (≈ 7.62 µM)
MIC (Candida albicans [6]): 6.3 µg/mL (≈ 7.62 µM)
MIC (Candida albicans [6]; [14]): 3.1 µg/mL (≈ 3.75 µM)
MIC (Piricularia oryzae): 3.1 µg/mL (≈ 3.75 µM)
MIC [7, 22]: 6.3 µg/mL (≈ 7.62 µM)
MIC [7, 23]: 3.1 µg/mL (≈ 3.75 µM)

CN[C@@H]1[C@H](O)[C@@H](O)[C@H](OC2c3cc(C)c(C(=O)N[C@H](C)C(=O)O)c(O)c3-c3c(cc4c(c3O)C(=O)c3cc(OC)cc(O)c3C4=O)C2O)O[C@@H]1C (stereo partly shown) [BU-3608 B]
MIC (Aspergillus fumigatus [1]; [12]): 6.3 µg/mL (≈ 8.89 µM)
MIC (Aspergillus fumigatus [1]; [13]): 6.3 µg/mL (≈ 8.89 µM)
MIC [2]: 6.3 µg/mL (≈ 8.89 µM)
MIC [2, 14]: 3.1 µg/mL (≈ 4.37 µM)
ED50 (Candida albicans A9540; A9540, im, 480 h): 22 mg/kg
ED50 (Candida albicans A9540; A9540, iv, 480 h): 11 mg/kg
Number of survivors/tested (Candida albicans A9540; [24]): 0/5
Number of survivors/tested (Candida albicans A9540; [25]): 0/5
Number of survivors/tested (Candida albicans A9540; [26]): 3/5
Number of survivors/tested (Candida albicans A9540; [27]): 3/5
Number of survivors/tested (Candida albicans A9540; [28]): 4/5
MIC (Sporothrix schenckii; [15]): 3.1 µg/mL (≈ 4.37 µM)
MIC (Cryptococcus neoformans [3]; [16]): 0.8 µg/mL (≈ 1.13 µM)
MIC (Cryptococcus neoformans [3]; [17]): 0.8 µg/mL (≈ 1.13 µM)
MIC (Candida albicans [4]; [18]): 3.1 µg/mL (≈ 4.37 µM)
MIC (Candida albicans [4]; [19]): 1.6 µg/mL (≈ 2.26 µM)
CC50 at 72 h (in vitro [8]): > 100 µg/mL
MIC (Aspergillus fumigatus [5]; IAM2034): 50 µg/mL (≈ 70.6 µM)
MIC (Aspergillus fumigatus [5]; [20]): 12.5 µg/mL (≈ 17.6 µM)
MIC (Fusarium moniliforme; [21]): > 100 µg/mL
MIC (Cryptococcus neoformans [9]; IAM4514): 1.6 µg/mL (≈ 2.26 µM)
ED50 [10]: 11 mg/kg
MIC (Candida albicans [6]): 3.1 µg/mL (≈ 4.37 µM)
MIC (Candida albicans [6]; [14]): 3.1 µg/mL (≈ 4.37 µM)
MIC (Piricularia oryzae; 48-72 h at 28° C., read-out: MIC): 6.3 µg/mL (≈ 8.89 µM)
IC50 (influenza virus A): 8.4 µg/mL (≈ 11.9 µM)
MIC [7, 22]: 6.3 µg/mL (≈ 8.89 µM)
MIC [7, 23]: 6.3 µg/mL (≈ 8.89 µM)

CN[C@@H]1[C@H](O[C@@H]2OC[C@@H](O)[C@H](O)[C@H]2O)[C@@H](O)[C@H](OC2c3cc(C)c(C(=O)N[C@H](C)C(=O)O)c(O)c3-c3c(cc4c(c3O)C(=O)c3cc(OC)cc(O)c3C4=O)C2O)O[C@@H]1C (stereo partly shown) [BU-3608]
MIC (Aspergillus fumigatus [1]; Aspergillus fumigatus IAM2034, 72 h at 28° C., 10^5 CFU/ml): 3.1 µg/mL (≈ 3.69 µM)
MIC (Aspergillus fumigatus [1]; Aspergillus fumigatus IAM2530, 72 h at 28° C., 10^5 CFU/ml): 3.1 µg/mL (≈ 3.69 µM)
MIC (Blastomyces dermatitidis): 6.3 µg/mL (≈ 7.49 µM)
Solubility (Solubility): Soluble in dimethyl sulfoxide, dimethyl formamide, acidic and alkaline water; also recorded: Slightly soluble in water, methanol, and ethanol; also recorded: Insoluble in ethyl acetate, chloroform, benzene, n-hexane, and petroleum ether
MIC ([2]; 72 h): 25 µg/mL (≈ 29.7 µM)
MIC ([2]; 72 h, read-out: MIC, partial inhibition (value in parenthesis)): 6.3 µg/mL (≈ 7.49 µM)
ED50 (Candida albicans A9540; A9540, 480 h, iv just after fungal challenge, day 20, challenge 20x (BU-3608) or 10x (B, C) median lethal dose): 7.2 mg/kg
Number of survivors/tested (Candida albicans A9540; dose 1.6 mg/kg/inj., day 20, challenge 20x median lethal dose): 1/5
Number of survivors/tested (Candida albicans A9540; [24]): 2/5
Number of survivors/tested (Candida albicans A9540; [25]): 2/5
Number of survivors/tested (Candida albicans A9540; [26]): 5/5
Number of survivors/tested (Candida albicans A9540; [27]): 5/5
Number of survivors/tested (Candida albicans A9540; [28]): 5/5
MIC (Sporothrix schenckii; Sporothrix schenckii IFO8158, 72 h at 28° C., 10^5 CFU/ml): 0.8 µg/mL (≈ 0.951 µM)
MIC (Mucor spinosus): 50 µg/mL (≈ 59.5 µM)
MIC (Cryptococcus neoformans [3]; Cryptococcus neoformans D49, 72 h at 28° C., 10^5 CFU/ml): 0.8 µg/mL (≈ 0.951 µM)
MIC (Cryptococcus neoformans [3]; Cryptococcus neoformans IAM4514, 72 h at 28° C., 10^5 CFU/ml): 0.8 µg/mL (≈ 0.951 µM)
MIC (Aspergillus flavus): 1.6 µg/mL (≈ 1.9 µM)
MIC (Candida albicans [4]; Candida albicans A9540, 72 h at 28° C., 10^5 CFU/ml): 25 µg/mL (≈ 29.7 µM)
MIC (Candida albicans [4]; Candida albicans IAM4888, 72 h at 28° C., 10^5 CFU/ml): 25 µg/mL (≈ 29.7 µM)
CC50 at 72 h (in vitro [11]): > 100 µg/mL
MIC (Petriellidium boydii): 100 µg/mL (≈ 119 µM)
CC50 at 72 h (in vitro [8]): > 100 µg/mL
MIC (Aspergillus fumigatus [5]; IAM2034, 72 h): 12.5 µg/mL (≈ 14.9 µM)
sign of toxicity (Acute toxicity in mice; mice, single im dose of 400 mg/kg): no sign of toxicity
LD50 (Acute toxicity in mice; mouse, in vivo, iv): 140 mg/kg
MIC (Fusarium moniliforme; Fusarium moniliforme A2284, 72 h at 28° C., 10^5 CFU/ml): 3.1 µg/mL (≈ 3.69 µM)
MIC (Cryptococcus neoformans [9]; IAM4514, 72 h): 0.4 µg/mL (≈ 0.476 µM)
ED50 [10]: 3.5 mg/kg
MIC (Candida albicans [6]; 72 h): 6.3 µg/mL (≈ 7.49 µM)
MIC (Piricularia oryzae; 72 h): 3.1 µg/mL (≈ 3.69 µM)
IC50 (influenza virus A): 4.4 µg/mL (≈ 5.23 µM)
MIC ([7]; 72 h, Trichophyton mentagrophytes #4329, 72 h at 28° C., 10^5 CFU/ml): 25 µg/mL (≈ 29.7 µM)
MIC ([7]; 72 h, Trichophyton mentagrophytes D155, 72 h at 28° C., 10^5 CFU/ml): > 100 µg/mL
